Experimental data from patent publication US20070117743A1, “New antitumoral compounds” (priority 2003, published 2007).
Where a SMILES comes first, the peptide text is derived from it. Bridges are numbered along the chain shown (N, C = ends). [ ]: non-standard residue; d: D form. The star is where a group is joined. d(aIle) = CC[C@H](C)[C@@H](N)C(=O)O; d(aThr) = C[C@@H](O)[C@@H](N)C(=O)O; Hexanoyl(5-Me) = CC(C)CCCC(=O)*; Orn = NCCC[C@H](N)C(=O)O; Dhb = C/C=C(\N)C(=O)O

How the values were obtained:
Format in all cases: cell-based, human
[1] = test system: PANC-1; experiment: SRB colorimetric assay of cell growth and viability, PANC-1; details: 48 hours exposure; for CC50: read-out: LC50 PANC-1
[2] = test system: K-562; experiment: SRB colorimetric assay of cell growth and viability, K-562; details: 48 hours exposure; for CC50: read-out: LC50 K-562
[3] = test system: LoVo; experiment: SRB colorimetric assay of cell growth and viability, LoVo; details: 48 hours exposure; for CC50: read-out: LC50 LOVO
[4] = test system: IGROV-ET; experiment: SRB colorimetric assay of cell growth and viability, IGROV-ET; details: 48 hours exposure; for CC50: read-out: LC50 IGROV-ET
[5] = test system: DU-145; experiment: SRB colorimetric assay of cell growth and viability, DU-145; details: 48 hours exposure
[6] = test system: HeLa-APL; experiment: SRB colorimetric assay of cell growth and viability, HeLa-APL; details: 48 hours exposure; for CC50: read-out: LC50 HELA-APL
[7] = test system: A-549; experiment: SRB colorimetric assay of cell growth and viability, A-549; details: 48 hours exposure; for GI50: read-out: GI50 A-549; for CC50: read-out: LC50 A-549
[8] = test system: LNCaP; experiment: SRB colorimetric assay of cell growth and viability, LNCaP; details: 48 hours exposure; for GI50: read-out: GI50 LN-caP; for CC50: read-out: LC50 LN-caP
[9] = test system: IGROV-1; experiment: SRB colorimetric assay of cell growth and viability, IGROV-1; details: 48 hours exposure
[10] = test system: HeLa; experiment: SRB colorimetric assay of cell growth and viability, HeLa; details: 48 hours exposure; for CC50: read-out: LC50 HELA
[11] = test system: SK-MEL-28; experiment: SRB colorimetric assay of cell growth and viability, SK-MEL-28; details: 48 hours exposure; for CC50: read-out: LC50 MEL-28
[12] = test system: HT-29; experiment: SRB colorimetric assay of cell growth and viability, HT-29; details: 48 hours exposure; for GI50: read-out: GI50 HT-29; for CC50: read-out: LC50 HT-29
[13] = test system: LoVo-Dox; experiment: SRB colorimetric assay of cell growth and viability, LoVo-Dox; details: 48 hours exposure; for CC50: read-out: LC50 LOVO-DOX
Summary of the method: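 SRB staining (0.4% wt/vol in 1% acetic acid, 10 min, room temperature) of cells fixed with 50% TCA follows a 48-hour exposure to compound. Plating density is 5×10^3 cells/well, and the OD is taken at 490 nm.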

[14] = test system: SK-BR-3; experiment: SRB colorimetric assay of cell growth and viability, SK-BR-3; details: 48 hours exposure

SMILES: C/C=C1\NC(=O)[C@H](Cc2ccccc2)NC(=O)[C@@H](C(C)C)NC(=O)[C@@H]([C@@H](C)CC)NC(=O)[C@H](NC(=O)[C@H](NC(=O)[C@H](CCCCN)NC(=O)[C@H]2CCCN2C(=O)[C@H](NC(=O)[C@@H](NC(=O)[C@@H](NC(=O)[C@H](NC(=O)CC[C@@H](C)CC)C(C)C)[C@@H](C)O)C(C)C)C(C)C)[C@@H](C)CC)[C@@H](C)OC(=O)[C@H](C(C)C)NC1=O [Compound 30, [Lys^8, (4S)-MeHex^14]-KF]
- GI50 [1]: 2.17 µM
- TGI PANC-1 [1]: 5.28E−06 Molar
- CC50 [1]: 6.7 µM
- GI50 [2]: 1.02 µM
- TGI K-562 [2]: 2.28E−06 Molar
- CC50 [2]: 5.07 µM
- GI50 [3]: 0.135 µM
- TGI LOVO [3]: 2.45E−07 Molar
- CC50 [3]: 0.444 µM
- GI50 [4]: 0.192 µM
- TGI IGROV-ET [4]: 3.50E−07 Molar
- CC50 [4]: 0.637 µM
- GI50 [5]: 0.329 µM
- LC50 (concentration causing 50% net cell kill) [5]: 4.2 µM
- TGI DU-145 [5]: 1.15E−06 Molar
- GI50 [6]: 0.677 µM
- TGI HELA-APL [6]: 1.76E−06 Molar
- CC50 [6]: 4.58 µM
- TGI A-549 [7]: 2.24E−06 Molar
- GI50 [7]: 1.04 µM
- CC50 [7]: 4.81 µM
- TGI LN-caP [8]: 1.72E−06 Molar
- GI50 [8]: 0.804 µM
- CC50 [8]: 3.68 µM
- GI50 [9]: 0.205 µM
- LC50 (concentration causing 50% net cell killing) [9]: 1.09 µM
- TGI IGROV [9]: 3.87E−07 Molar
- GI50 [10]: 0.212 µM
- TGI HELA [10]: 5.42E−07 Molar
- CC50 [10]: 2.47 µM
- GI50 [11]: 1.19 µM
- TGI MEL-28 [11]: 2.39E−06 Molar
- CC50 [11]: 4.78 µM
- TGI HT-29 [12]: 2.99E−07 Molar
- GI50 [12]: 0.173 µM
- CC50 [12]: 0.517 µM
- GI50 [13]: 0.164 µM
- TGI LOVO-DOX [13]: 3.24E−07 Molar
- CC50 [13]: 0.639 µM
- GI50 [14]: 0.159 µM
- LC50 [14]: 0.579 µM
- TGI SK-BR-3 [14]: 3.04E−07 Molar

SMILES: C/C=C1\NC(=O)[C@H](Cc2ccccc2)NC(=O)[C@@H](C(C)C)NC(=O)[C@@H]([C@@H](C)CC)NC(=O)[C@H](NC(=O)[C@H](NC(=O)[C@H](CCCN)NC(=O)[C@H]2CCCN2C(=O)[C@H](NC(=O)[C@H](CCCN)NC(=O)[C@@H](NC(=O)[C@H](NC(=O)CCCC(C)C)C(C)C)[C@@H](C)O)C(C)C)[C@@H](C)CC)[C@@H](C)OC(=O)[C@H](C(C)C)NC1=O [Compound 49, [Orn^11]-KF] ({Hexanoyl(5-Me)}-[dV]T[Orn][dV][dP][Orn][d(aIle)][d(aThr)][d(aIle)][dV]F[Dhb]V; ester 8-C)
- GI50 [1]: 1.31 µM
- TGI PANC-1 [1]: 3.09E−06 Molar
- CC50 [1]: 6.7 µM
- GI50 [2]: 0.15 µM
- TGI K-562 [2]: 1.67E−06 Molar
- CC50 [2]: 6.7 µM
- GI50 [3]: 1.47 µM
- TGI LOVO [3]: 3.80E−06 Molar
- CC50 [3]: 6.7 µM
- GI50 [4]: 1.91 µM
- TGI IGROV-ET [4]: 5.15E−06 Molar
- CC50 [4]: 6.7 µM
- GI50 [5]: 1.09 µM
- LC50 (concentration causing 50% net cell kill) [5]: 5.75 µM
- TGI DU-145 [5]: 2.50E−06 Molar
- GI50 [6]: 1.07 µM
- TGI HELA-APL [6]: 2.52E−06 Molar
- CC50 [6]: 5.95 µM
- TGI A-549 [7]: 6.70E−06 Molar
- GI50 [7]: 2.61 µM
- CC50 [7]: 6.7 µM
- TGI LN-caP [8]: 6.70E−06 Molar
- GI50 [8]: 2.2 µM
- CC50 [8]: 6.7 µM
- GI50 [9]: 1.27 µM
- LC50 (concentration causing 50% net cell killing) [9]: 5.97 µM
- TGI IGROV [9]: 2.75E−06 Molar
- GI50 [10]: 1.1 µM
- TGI HELA [10]: 2.20E−06 Molar
- CC50 [10]: 4.4 µM
- GI50 [11]: 1.33 µM
- TGI MEL-28 [11]: 2.50E−06 Molar
- CC50 [11]: 4.69 µM
- TGI HT-29 [12]: 3.74E−06 Molar
- GI50 [12]: 1.58 µM
- CC50 [12]: 6.7 µM
- GI50 [13]: 3.22 µM
- TGI LOVO-DOX [13]: 6.70E−06 Molar
- CC50 [13]: 6.7 µM
- GI50 [14]: 1.94 µM
- LC50 [14]: 6.7 µM
- TGI SK-BR-3 [14]: 5.57E−06 Molar

SMILES: C/C=C1\NC(=O)[C@H](Cc2ccccc2)NC(=O)[C@@H](C(C)C)NC(=O)[C@@H]([C@@H](C)CC)NC(=O)[C@H](NC(=O)[C@H](NC(=O)[C@H](CCCN)NC(=O)[C@H]2CCCN2C(=O)[C@H](NC(=O)[C@@H](NC(=O)[C@@H](NC(=O)[C@H](NC(=O)CCCC(C)C)C(C)C)[C@@H](C)O)[C@@H](C)O)C(C)C)[C@@H](C)CC)[C@@H](C)OC(=O)[C@H](C(C)C)NC1=O [Compound 50, [Thr^11]-KF] ({Hexanoyl(5-Me)}-[dV]TT[dV][dP][Orn][d(aIle)][d(aThr)][d(aIle)][dV]F[Dhb]V; ester 8-C)
- GI50 [1]: 4.16 µM
- TGI PANC-1 [1]: 6.76E−06 Molar
- CC50 [1]: ≥ 6.76 µM
- GI50 [2]: ≥ 6.76 µM
- TGI K-562 [2]: 6.76E−06 Molar
- CC50 [2]: ≥ 6.76 µM
- GI50 [3]: 1.21 µM
- TGI LOVO [3]: 2.80E−06 Molar
- CC50 [3]: 6.47 µM
- GI50 [4]: 2.7 µM
- TGI IGROV-ET [4]: 6.76E−06 Molar
- CC50 [4]: ≥ 6.76 µM
- GI50 [5]: ≥ 6.7 µM
- LC50 (concentration causing 50% net cell kill) [5]: ≥ 6.76 µM
- TGI DU-145 [5]: 6.76E−06 Molar
- GI50 [6]: ≥ 6.76 µM
- TGI HELA-APL [6]: 6.76E−06 Molar
- CC50 [6]: ≥ 6.76 µM
- TGI A-549 [7]: 6.76E−06 Molar
- GI50 [7]: ≥ 6.76 µM
- CC50 [7]: ≥ 6.76 µM
- TGI LN-caP [8]: 6.76E−06 Molar
- GI50 [8]: ≥ 6.76 µM
- CC50 [8]: ≥ 6.76 µM
- GI50 [9]: 3.76 µM
- LC50 (concentration causing 50% net cell killing) [9]: ≥ 6.76 µM
- TGI IGROV [9]: 6.76E−06 Molar
- GI50 [10]: 5.58 µM
- TGI HELA [10]: 6.76E−06 Molar
- CC50 [10]: ≥ 6.76 µM
- GI50 [11]: ≥ 6.76 µM
- TGI MEL-28 [11]: 6.76E−06 Molar
- CC50 [11]: ≥ 6.76 µM
- TGI HT-29 [12]: 6.76E−06 Molar
- GI50 [12]: 3.76 µM
- CC50 [12]: ≥ 6.76 µM
- GI50 [13]: 1.27 µM
- TGI LOVO-DOX [13]: 2.54E−06 Molar
- CC50 [13]: 5.1 µM
- GI50 [14]: 0.899 µM
- LC50 [14]: ≥ 6.76 µM
- TGI SK-BR-3 [14]: 2.58E−06 Molar

SMILES: C/C=C1\NC(=O)[C@H](Cc2ccccc2)NC(=O)[C@@H](C(C)C)NC(=O)[C@@H]([C@@H](C)CC)NC(=O)[C@H](NC(=O)[C@H](NC(=O)[C@H](CCCN)NC(=O)[C@H]2CCCN2C(=O)[C@H](NC(=O)[C@H](CCC(=O)O)NC(=O)[C@@H](NC(=O)[C@H](NC(=O)CCCC(C)C)C(C)C)[C@@H](C)O)C(C)C)[C@@H](C)CC)[C@@H](C)OC(=O)[C@H](C(C)C)NC1=O [Compound 51, [Glu^11]-KF] ({Hexanoyl(5-Me)}-[dV]TE[dV][dP][Orn][d(aIle)][d(aThr)][d(aIle)][dV]F[Dhb]V; ester 8-C)
- GI50 [1]: 6.63 µM
- TGI PANC-1 [1]: 6.63E−06 Molar
- CC50 [1]: 6.63 µM
- GI50 [2]: 6.63 µM
- TGI K-562 [2]: 6.63E−06 Molar
- CC50 [2]: 6.63 µM
- GI50 [3]: 6.63 µM
- TGI LOVO [3]: 6.63E−06 Molar
- CC50 [3]: 6.63 µM
- GI50 [4]: 6.63 µM
- TGI IGROV-ET [4]: 6.63E−06 Molar
- CC50 [4]: 6.63 µM
- GI50 [5]: 6.63 µM
- LC50 (concentration causing 50% net cell kill) [5]: 6.63 µM
- TGI DU-145 [5]: 6.63E−06 Molar
- GI50 [6]: 6.63 µM
- TGI HELA-APL [6]: 6.63E−06 Molar
- CC50 [6]: 6.63 µM
- TGI A-549 [7]: 6.63E−06 Molar
- GI50 [7]: 6.63 µM
- CC50 [7]: 6.63 µM
- TGI LN-caP [8]: 6.63E−06 Molar
- GI50 [8]: 6.63 µM
- CC50 [8]: 6.63 µM
- GI50 [9]: 6.63 µM
- LC50 (concentration causing 50% net cell killing) [9]: 6.63 µM
- TGI IGROV [9]: 6.63E−06 Molar
- GI50 [10]: 6.63 µM
- TGI HELA [10]: 6.63E−06 Molar
- CC50 [10]: 6.63 µM
- GI50 [11]: 6.63 µM
- TGI MEL-28 [11]: 6.63E−06 Molar
- CC50 [11]: 6.63 µM
- TGI HT-29 [12]: 6.63E−06 Molar
- GI50 [12]: 6.63 µM
- CC50 [12]: 6.63 µM
- GI50 [13]: 6.63 µM
- TGI LOVO-DOX [13]: 6.63E−06 Molar
- CC50 [13]: 6.63 µM
- GI50 [14]: 6.63 µM
- LC50 [14]: 6.63 µM
- TGI SK-BR-3 [14]: 6.63E−06 Molar
